Data as given in PubChem BioAssay (NCI).
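In this assay, cells in 96-well plates receive the compound at five concentrations for 48 hours. Endpoints are linearly interpolated between the surrounding concentrations. At the TGI there is no net growth.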

Experiments:
Test in all cases: inhibition of tumour cell growth, NCI panel, 48 h
HS 578T breast = system: HS 578T breast
SW-620 colon = system: SW-620 colon
NCI-H522 lung = system: NCI-H522 lung
786-0 renal = system: 786-0 renal
M14 melanoma = system: M14 melanoma
MOLT-4 leukemia = system: MOLT-4 leukemia
RPMI-8226 leukemia = system: RPMI-8226 leukemia
SN12C renal = system: SN12C renal
HL-60(TB) leukemia = system: HL-60(TB) leukemia
NCI-H226 lung = system: NCI-H226 lung
RXF 393 renal = system: RXF 393 renal
SK-OV-3 ovarian = system: SK-OV-3 ovarian
SK-MEL-5 melanoma = system: SK-MEL-5 melanoma
SF-539 CNS = system: SF-539 CNS
NCI-H23 lung = system: NCI-H23 lung
NCI-H460 lung = system: NCI-H460 lung
SF-268 CNS = system: SF-268 CNS
A549 NSCLC = system: A549 NSCLC
MCF7 breast = system: MCF7 breast
OVCAR-5 ovarian = system: OVCAR-5 ovarian
CAKI-1 renal = system: CAKI-1 renal
SNB-19 CNS = system: SNB-19 CNS
HCC-2998 colon = system: HCC-2998 colon
UACC-62 melanoma = system: UACC-62 melanoma
HCT-116 colon = system: HCT-116 colon
CCRF-CEM leukemia = system: CCRF-CEM leukemia
COLO 205 colon = system: COLO 205 colon
IGROV1 ovarian = system: IGROV1 ovarian
A498 renal = system: A498 renal
HOP-62 NSCLC = system: HOP-62 NSCLC
OVCAR-8 ovarian = system: OVCAR-8 ovarian
NCI/ADR-RES ovarian = system: NCI/ADR-RES ovarian
SNB-75 CNS = system: SNB-75 CNS
MALME-3M melanoma = system: MALME-3M melanoma
MDA-N = system: MDA-N
SK-MEL-2 melanoma = system: SK-MEL-2 melanoma
HT29 colon = system: HT29 colon
SK-MEL-28 melanoma = system: SK-MEL-28 melanoma
LOX IMVI melanoma = system: LOX IMVI melanoma
TK-10 renal = system: TK-10 renal
ACHN renal = system: ACHN renal
OVCAR-4 ovarian = system: OVCAR-4 ovarian
PC-3 prostate = system: PC-3 prostate
EKVX NSCLC = system: EKVX NSCLC
UACC-257 melanoma = system: UACC-257 melanoma
KM12 colon = system: KM12 colon
UO-31 renal = system: UO-31 renal
BT-549 breast = system: BT-549 breast
U251 CNS = system: U251 CNS
OVCAR-3 ovarian = system: OVCAR-3 ovarian
MDA-MB-231 breast = system: MDA-MB-231 breast
K-562 leukemia = system: K-562 leukemia
T-47D breast = system: T-47D breast
SF-295 CNS = system: SF-295 CNS
HOP-92 NSCLC = system: HOP-92 NSCLC
MDA-MB-435 = system: MDA-MB-435
DU-145 prostate = system: DU-145 prostate
HCT-15 colon = system: HCT-15 colon
SR leukemia = system: SR leukemia

`Cn1c(=O)c2c(=O)cc(N)[nH]c2n(C)c1=O` showed a TGI (HS 578T breast) greater than 100 µM, a TGI (SW-620 colon) greater than 100 µM and a TGI (NCI-H522 lung) greater than 100 µM. For the same compound, the TGI (786-0 renal) was greater than 100 µM, the TGI (M14 melanoma) was greater than 100 µM and the TGI (MOLT-4 leukemia) was greater than 100 µM. The TGI (RPMI-8226 leukemia) was greater than 100 µM, the TGI (SN12C renal) was greater than 100 µM and the TGI (HL-60(TB) leukemia) was greater than 100 µM. The TGI (NCI-H226 lung) was greater than 100 µM, the TGI (RXF 393 renal) was greater than 100 µM and the TGI (SK-OV-3 ovarian) was greater than 100 µM. For the same compound, the TGI (SK-MEL-5 melanoma) was greater than 100 µM, the TGI (SF-539 CNS) was greater than 100 µM and the TGI (NCI-H23 lung) was greater than 100 µM. It also gave a TGI (NCI-H460 lung) greater than 100 µM, a TGI (SF-268 CNS) greater than 100 µM and a TGI (A549 NSCLC) greater than 100 µM. For the same compound, the TGI (MCF7 breast) was greater than 100 µM, the TGI (OVCAR-5 ovarian) was greater than 100 µM and the TGI (CAKI-1 renal) was 76.8 µM. It also gave a TGI (SNB-19 CNS) greater than 100 µM, a TGI (HCC-2998 colon) greater than 100 µM and a TGI (UACC-62 melanoma) greater than 100 µM. For the same compound, the TGI (HCT-116 colon) was greater than 100 µM, the TGI (CCRF-CEM leukemia) was greater than 100 µM and the TGI (COLO 205 colon) was greater than 100 µM. It also gave a TGI (IGROV1 ovarian) greater than 100 µM, a TGI (A498 renal) greater than 100 µM and a TGI (HOP-62 NSCLC) greater than 100 µM. It also gave a TGI (OVCAR-8 ovarian) greater than 100 µM, a TGI (NCI/ADR-RES ovarian) greater than 100 µM and a TGI (SNB-75 CNS) greater than 100 µM. For the same compound, the TGI (MALME-3M melanoma) was greater than 100 µM, the TGI (MDA-N) was greater than 100 µM and the TGI (SK-MEL-2 melanoma) was greater than 100 µM. The TGI (HT29 colon) was greater than 100 µM, the TGI (SK-MEL-28 melanoma) was greater than 100 µM and the TGI (LOX IMVI melanoma) was greater than 100 µM. For the same compound, the TGI (TK-10 renal) was greater than 100 µM, the TGI (ACHN renal) was greater than 100 µM and the TGI (OVCAR-4 ovarian) was greater than 100 µM. The TGI (PC-3 prostate) was greater than 100 µM, the TGI (EKVX NSCLC) was greater than 100 µM and the TGI (UACC-257 melanoma) was greater than 100 µM. For the same compound, the TGI (KM12 colon) was greater than 100 µM, the TGI (UO-31 renal) was greater than 100 µM and the TGI (BT-549 breast) was greater than 100 µM. For the same compound, the TGI (U251 CNS) was greater than 100 µM, the TGI (OVCAR-3 ovarian) was greater than 100 µM and the TGI (MDA-MB-231 breast) was greater than 100 µM. For the same compound, the TGI (K-562 leukemia) was greater than 100 µM, the TGI (T-47D breast) was greater than 100 µM and the TGI (SF-295 CNS) was greater than 100 µM. For the same compound, the TGI (HOP-92 NSCLC) was greater than 100 µM, the TGI (MDA-MB-435) was greater than 100 µM and the TGI (DU-145 prostate) was greater than 100 µM.
Work on `COc1cc2c(cc1[N+](=O)[O-])C(=O)C(Br)(Br)CCC2` yielded a TGI (HCT-15 colon) of 3.67 µM, a TGI (HS 578T breast) of 23.2 µM and a TGI (SW-620 colon) of 3.99 µM. It also gave a TGI (NCI-H522 lung) of 2.37 µM, a TGI (786-0 renal) of 2.73 µM and a TGI (M14 melanoma) of 5.34 µM. For the same compound, the TGI (SR leukemia) was 4.96 µM, the TGI (MOLT-4 leukemia) was 5.95 µM and the TGI (RPMI-8226 leukemia) was 4.07 µM. It also gave a TGI (SN12C renal) of 5.16 µM, a TGI (HL-60(TB) leukemia) of 21 µM and a TGI (NCI-H226 lung) of 10.7 µM. It also gave a TGI (RXF 393 renal) of 4.51 µM, a TGI (SK-OV-3 ovarian) of 9.41 µM and a TGI (SK-MEL-5 melanoma) of 3.77 µM. For the same compound, the TGI (SF-539 CNS) was 3.87 µM, the TGI (NCI-H23 lung) was 8.59 µM and the TGI (NCI-H460 lung) was 20.1 µM. It also gave a TGI (SF-268 CNS) of 15.6 µM, a TGI (A549 NSCLC) greater than 46.6 µM and a TGI (MCF7 breast) of 5.33 µM. It also gave a TGI (OVCAR-5 ovarian) of 4.42 µM, a TGI (CAKI-1 renal) of 7.8 µM and a TGI (SNB-19 CNS) of 19.5 µM. It also gave a TGI (HCC-2998 colon) of 32.5 µM, a TGI (UACC-62 melanoma) of 10 µM and a TGI (HCT-116 colon) of 1.87 µM. It also gave a TGI (CCRF-CEM leukemia) of 3.35 µM, a TGI (COLO 205 colon) of 3.57 µM and a TGI (IGROV1 ovarian) of 2.93 µM. It also gave a TGI (A498 renal) of 28.6 µM, a TGI (HOP-62 NSCLC) of 14.4 µM and a TGI (OVCAR-8 ovarian) of 5.54 µM. The TGI (NCI/ADR-RES ovarian) was 7.31 µM, the TGI (SNB-75 CNS) was 25.8 µM and the TGI (MALME-3M melanoma) was 4.99 µM. It also gave a TGI (MDA-N) of 9.46 µM, a TGI (SK-MEL-2 melanoma) of 4.8 µM and a TGI (HT29 colon) of 11.2 µM. The TGI (LOX IMVI melanoma) was 1.97 µM, the TGI (TK-10 renal) was 9.72 µM and the TGI (ACHN renal) was 4.47 µM. For the same compound, the TGI (OVCAR-4 ovarian) was 15.7 µM, the TGI (PC-3 prostate) was 17 µM and the TGI (EKVX NSCLC) was 6.25 µM. The TGI (UACC-257 melanoma) was 26.7 µM, the TGI (KM12 colon) was 15.2 µM and the TGI (UO-31 renal) was 3.23 µM. The TGI (BT-549 breast) was 4.97 µM, the TGI (U251 CNS) was 9.04 µM and the TGI (OVCAR-3 ovarian) was 10.5 µM. For the same compound, the TGI (MDA-MB-231 breast) was 9.42 µM, the TGI (K-562 leukemia) was 6.27 µM and the TGI (T-47D breast) was greater than 27.2 µM. For the same compound, the TGI (SF-295 CNS) was 19.4 µM, the TGI (HOP-92 NSCLC) was 17 µM and the TGI (MDA-MB-435) was 10.9 µM. It also gave a TGI (DU-145 prostate) of 25.8 µM.
In the case of `CN1CCN(c2n[nH]c(=O)c3c2nnn3C2CCCCC2)CC1`, the TGI (HCT-15 colon) is reported as greater than 100 µM, the TGI (HS 578T breast) is reported as greater than 100 µM and the TGI (SW-620 colon) is reported as greater than 100 µM. For the same compound, the TGI (NCI-H522 lung) was greater than 100 µM, the TGI (786-0 renal) was greater than 100 µM and the TGI (M14 melanoma) was greater than 100 µM. The TGI (SR leukemia) was greater than 100 µM, the TGI (MOLT-4 leukemia) was greater than 100 µM and the TGI (RPMI-8226 leukemia) was greater than 100 µM. For the same compound, the TGI (SN12C renal) was greater than 100 µM, the TGI (HL-60(TB) leukemia) was greater than 100 µM and the TGI (NCI-H226 lung) was greater than 100 µM. For the same compound, the TGI (RXF 393 renal) was greater than 100 µM, the TGI (SK-MEL-5 melanoma) was greater than 100 µM and the TGI (SF-539 CNS) was greater than 100 µM. The TGI (NCI-H23 lung) was greater than 100 µM, the TGI (NCI-H460 lung) was greater than 100 µM and the TGI (SF-268 CNS) was greater than 100 µM. It also gave a TGI (A549 NSCLC) greater than 100 µM, a TGI (MCF7 breast) greater than 100 µM and a TGI (OVCAR-5 ovarian) greater than 100 µM. It also gave a TGI (CAKI-1 renal) greater than 100 µM, a TGI (SNB-19 CNS) greater than 100 µM and a TGI (HCC-2998 colon) greater than 100 µM. For the same compound, the TGI (UACC-62 melanoma) was greater than 100 µM, the TGI (HCT-116 colon) was greater than 100 µM and the TGI (CCRF-CEM leukemia) was greater than 100 µM. It also gave a TGI (COLO 205 colon) greater than 100 µM, a TGI (IGROV1 ovarian) greater than 100 µM and a TGI (A498 renal) greater than 100 µM. The TGI (HOP-62 NSCLC) was greater than 100 µM, the TGI (OVCAR-8 ovarian) was greater than 100 µM and the TGI (NCI/ADR-RES ovarian) was greater than 100 µM. It also gave a TGI (SNB-75 CNS) greater than 100 µM, a TGI (MALME-3M melanoma) greater than 100 µM and a TGI (MDA-N) greater than 100 µM. For the same compound, the TGI (SK-MEL-2 melanoma) was greater than 100 µM, the TGI (HT29 colon) was greater than 100 µM and the TGI (SK-MEL-28 melanoma) was greater than 100 µM. For the same compound, the TGI (LOX IMVI melanoma) was greater than 100 µM, the TGI (TK-10 renal) was greater than 100 µM and the TGI (ACHN renal) was greater than 100 µM. The TGI (OVCAR-4 ovarian) was greater than 100 µM, the TGI (PC-3 prostate) was greater than 100 µM and the TGI (EKVX NSCLC) was greater than 100 µM. It also gave a TGI (UACC-257 melanoma) greater than 100 µM, a TGI (KM12 colon) greater than 100 µM and a TGI (UO-31 renal) greater than 100 µM. The TGI (BT-549 breast) was greater than 100 µM, the TGI (U251 CNS) was greater than 100 µM and the TGI (OVCAR-3 ovarian) was greater than 100 µM. For the same compound, the TGI (MDA-MB-231 breast) was greater than 100 µM, the TGI (K-562 leukemia) was greater than 100 µM and the TGI (T-47D breast) was greater than 100 µM. For the same compound, the TGI (SF-295 CNS) was greater than 100 µM, the TGI (HOP-92 NSCLC) was greater than 100 µM and the TGI (MDA-MB-435) was greater than 100 µM. It also gave a TGI (DU-145 prostate) greater than 100 µM.
